How the values were obtained:
PDE6D = biological target: T1, PDE6D (Mus musculus, UniProt O55057+Q8C7D2); test: Western blot validation of PDE6D degradation; assay type: cell-based; settings: AT3, 4434 and CT26, 10uM, 24h, western blotting
T1 construct: endogenous in cells; host or cells: AT3, 4434, CT26 (mouse); HEK293T run as human control
Procedure: (§1) Figure 6 FPFT2216 induces the degradation of PDE6D in murine cells (A) Proteomes of CT26 cells treated with 10uM of the indicated compounds for 24h and analyzed using quantitative proteomics. Data are plotted as Log2 fold change relative to DMSO versus Log10 of p value. (B) Proteome of CT26 CRBN KO cells treated with 10uM of FPFT2216 for 24h analyzed and plotted as in (A). (C) HEK293T, CT26, AT3 and 4434 cells treated with 10uM of FPFT2216 for 24h in presence of absence of MLN4924. Lysats were analyzed using western blotting. (D) Structural representation of PDE6D with the critical Glycine 28 highlighted in red. (E) CT26, AT3 and 4434 cells transiently expressing WT or G28N mutant Flag-PDE6D treated with 10uM of FPFT2216 for 16h. (F) Docking model for FPFT-2216 (in magenta) in the binding site of mouse CRBN (in orange). H-bond interactions are shown as cyan dashes. (G) Binding model for the ternary complex formed by mouse CRBN (in orange), mouse PDE6D (in cyan) and FPFT-2216 (in magenta), showing the Gly28 loop close to the molecular glue.
(§2) Cells were lysed with SDS lysis buffer (2% SDS, 10% Glycerol, 50mM Tris pH 6.8) and boiled at 95°C for 30min. Protein concentration was measured using Pierce BCA Protein Assay Kit (ThermoFischer) following manufacturer’s recommendations. […]

Flag-PDE6D G28N mutant = biological target: T2, Flag-PDE6D G28N mutant (Mus musculus, UniProt O55057, G28N); test: Degradation of WT or G28N mutant Flag-PDE6D in murine cells; assay type: cell-based; settings: CT26, AT3 and 4434, 10uM, 16h
T2 construct: expressed in transfected cells; host or cells: CT26, AT3 and 4434 murine cells, transient
Procedure: as §1
After validating PDE6D degradation, we progressed to identify the critical degron site on the protein. We hypothesized that PDE6D binding to CRBN would require a Gly loop motif and used known structural features of IMiD degrons to map this site in PDE6D (see STAR Methods for details). […]

CT26 cells = test: Quantitative multiplexed proteomics of CT26 cells treated with thalidomide derivatives; assay type: cell-based, mouse; settings: 24h
Procedure: After showing that iTAG was active in mouse cells, we explored whether more potential degrons were active in the murine context. […]2216[50] and profiled the cellular proteomes using quantitative multiplexed proteomics. […] Data are plotted as Log2 fold change relative to DMSO versus Log10 of p value. (B) Proteome of CT26 CRBN KO cells treated with 10uM of FPFT2216 for 24h analyzed and plotted as in (A). (C) HEK293T, CT26, AT3 and 4434 cells treated with 10uM of FPFT2216 for 24h in presence of absence of MLN4924. […] were analyzed using western blotting. (D) Structural representation of PDE6D with the critical […] highlighted in red. (E) CT26, AT3 and 4434 cells transiently expressing WT or […] mutant Flag-PDE6D treated with 10uM of FPFT2216 for 16h. (F) Docking model for FPFT-2216 (in magenta) in the binding site of mouse CRBN (in orange). H-bond interactions are shown as cyan dashes. (G) Binding model for the ternary complex formed by mouse CRBN (in orange), mouse PDE6D (in cyan) and FPFT-2216 (in magenta), showing the […] loop close to the molecular glue. Samples for quantitative proteomics were prepared using the […] workflow.[60] Briefly, the cell pellets were lysed in a buffer containing 150 μL 0.1 M triethylammonium bicarbonate (TEAB), 1% sodium deoxycholate (SDC), 10% isopropanol, 50mM NaCl, 5 mM tris-2-carboxyethyl phosphine (TCEP), 10 mM iodoacetamide (IAA), universal nuclease, and supplemented with protease and phosphatase inhibitors. Samples were bath sonicated for 5 min, incubated at RT for 45 min and protein concentration was measured with the Bradford Protein Assay (Biorad) according to manufacturer instructions. Aliquots containing 30 μg of total protein were used for protein digestion. The resultant peptides were labeled with a tandem mass tag (TMTpro) multiplex reagent vial (Thermo Scientific) according to the manufacturer instructions. All the TMT-labelled samples were combined in equal amounts to a single tube. The TMT-peptide mixture was acidified with 1% formic acid and the precipitated SDC was removed by centrifugation. The sample was then dried with a centrifugal vacuum concentrator. LC-MS analysis was performed on the Dionex Ultimate 3000 UHPLC system coupled with the Orbitrap Lumos mass spectrometer (Thermo Scientific). Samples were analyzed with the EASY-Spray C18 capillary column (75 μm × 50 cm, 2 μm) at 50°C. […] MS3 quantification was obtained with higher-energy collisional dissociation (HCD) fragmentation of the top 5 most abundant CID fragments isolated with synchronous precursor selection (SPS). […] The SEQUEST-HT search engine was used to analyze the acquired mass spectra in Proteome Discoverer 2.4 (Thermo Scientific) for protein identification and quantification. […]

CK1α = test: Western blot validation of CK1α degradation; assay type: cell-based, human, mouse; settings: HEK293T versus AT3, 4434, CT26, 10uM, 24h, western blotting
Procedure: as §1, §2

T2 sequence (Q8C7D2 whole entry partner): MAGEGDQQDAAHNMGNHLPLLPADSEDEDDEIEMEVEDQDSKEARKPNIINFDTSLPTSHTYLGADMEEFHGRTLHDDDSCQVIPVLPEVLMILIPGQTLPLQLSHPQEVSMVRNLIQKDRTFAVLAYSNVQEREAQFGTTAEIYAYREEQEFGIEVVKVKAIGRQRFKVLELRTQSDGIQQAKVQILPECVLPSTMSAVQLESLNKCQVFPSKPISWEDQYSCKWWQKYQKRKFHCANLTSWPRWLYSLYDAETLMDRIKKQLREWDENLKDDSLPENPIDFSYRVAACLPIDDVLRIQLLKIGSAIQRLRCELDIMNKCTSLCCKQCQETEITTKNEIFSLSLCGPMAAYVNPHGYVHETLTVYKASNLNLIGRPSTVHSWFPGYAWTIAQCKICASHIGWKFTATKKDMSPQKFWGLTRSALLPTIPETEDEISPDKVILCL
T2 sequence (Q3U1J4 2-1140 partner limits assumed): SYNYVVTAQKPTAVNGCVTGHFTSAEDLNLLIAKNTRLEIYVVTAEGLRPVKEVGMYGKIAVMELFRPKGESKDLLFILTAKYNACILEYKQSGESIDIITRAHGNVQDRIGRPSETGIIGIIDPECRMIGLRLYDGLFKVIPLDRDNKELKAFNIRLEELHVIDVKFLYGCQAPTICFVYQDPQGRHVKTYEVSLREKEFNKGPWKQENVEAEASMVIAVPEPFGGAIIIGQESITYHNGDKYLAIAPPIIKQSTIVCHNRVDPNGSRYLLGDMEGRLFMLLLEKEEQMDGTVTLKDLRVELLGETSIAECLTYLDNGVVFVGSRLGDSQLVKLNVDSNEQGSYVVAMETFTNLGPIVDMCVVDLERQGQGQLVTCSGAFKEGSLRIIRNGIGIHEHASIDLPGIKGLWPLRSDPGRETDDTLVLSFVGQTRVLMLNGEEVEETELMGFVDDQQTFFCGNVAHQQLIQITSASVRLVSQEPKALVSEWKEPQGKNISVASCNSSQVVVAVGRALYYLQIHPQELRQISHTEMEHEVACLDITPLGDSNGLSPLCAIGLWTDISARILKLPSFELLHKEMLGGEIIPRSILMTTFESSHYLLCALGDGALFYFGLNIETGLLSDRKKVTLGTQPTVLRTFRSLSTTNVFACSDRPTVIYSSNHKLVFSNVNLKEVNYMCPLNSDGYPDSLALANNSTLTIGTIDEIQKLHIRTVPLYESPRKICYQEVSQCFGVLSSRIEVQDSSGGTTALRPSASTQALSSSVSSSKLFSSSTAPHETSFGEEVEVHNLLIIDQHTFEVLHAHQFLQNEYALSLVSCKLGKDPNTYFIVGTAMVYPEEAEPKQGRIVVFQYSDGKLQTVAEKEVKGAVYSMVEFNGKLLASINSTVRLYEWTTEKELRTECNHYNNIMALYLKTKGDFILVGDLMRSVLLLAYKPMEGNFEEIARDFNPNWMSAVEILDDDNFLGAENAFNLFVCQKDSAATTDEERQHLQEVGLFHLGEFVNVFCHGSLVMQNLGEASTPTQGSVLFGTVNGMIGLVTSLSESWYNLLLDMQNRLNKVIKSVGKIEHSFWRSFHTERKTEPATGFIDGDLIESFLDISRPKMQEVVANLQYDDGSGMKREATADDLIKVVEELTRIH
T2 sequence (O55057 whole entry G28N): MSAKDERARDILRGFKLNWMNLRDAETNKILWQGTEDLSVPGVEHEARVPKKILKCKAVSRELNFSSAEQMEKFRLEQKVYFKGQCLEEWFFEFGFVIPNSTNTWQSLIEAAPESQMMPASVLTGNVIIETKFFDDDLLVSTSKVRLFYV
T1 sequence (O55057 whole entry): as the sequence (O55057 whole entry G28N) above, with N28G counted along it
T1 sequence (Q8C7D2 whole entry): as the sequence (Q8C7D2 whole entry partner) above
T1 sequence (Q3U1J4 2-1140 partner limits assumed): as the sequence (Q3U1J4 2-1140 partner limits assumed) above

COc1cscc1-c1cn(C2CCC(=O)NC2=O)nn1 (centres unmarked) [FPFT2216]
degradation of PDE6D (PDE6D): induced the degradation of PDE6D
degradation of G28N mutant PDE6D (Flag-PDE6D G28N mutant): not degraded
effect on cellular proteome (CT26 cells; CT26, 10uM): strong downregulation of PDE6D, Rab28 and to a much lesser extent CK1α
CRBN dependence of proteome effects (CT26 cells; CT26 CRBN KO cells, 10uM): CRBN dependent
degradation of CK1α (CK1α): only degraded in human cells

Source: paper PMC10285648, “iTAG an optimized IMiD-induced degron for targeted protein degradation in human and murine cells” (iScience, 2023)
